This note sets out measurements from patent publication US12042503B2, “Compositions and methods for treating coronavirus infections” (priority 2020, dated 2024).

The target in one assay is T1, IP receptor (PTGIR) (Homo sapiens, UniProt P43119).
T1 construct: host or cells: PathHunter beta-arrestin cell line
Kind of assay: PathHunter beta-arrestin cell-based prostanoid receptor assay, IP. The protocol:
(§1) DiscoverX cell-based ligand binding assays were performed in the PathHunter beta-arrestin (EP1, EP2, EP3, EP4, FP, IP, and TP receptors) or cAMP Hunter™ (DP receptor) cell lines.
(§2) Receptor binding studies were performed in either the PathHunter® b-Arrestin (EP1, EP2, EP3, EP4, FP, IP, and TP receptors) or cAMP Hunter™ (DP receptor) cell lines. A 10 mM working stock of GP1681 was created in 1×PBS, pH 7.4. All assays were carried out in duplicate with 10 individual concentrations of GP1681. A three-fold dilution series of GP1681 was established for the initial or pilot experiment with a starting concentration of 4 uM (starting concentration was chosen based on previous Gemmus Pharma preclinical experimental results).
(§3) GP1681 was incubated with cells lines at either 37° C. or room temperature, for 90-180 minutes (temperatures and incubation times are all dependent on established optimized procedures for each receptor cell line) after which cell wells were processed and signal production detected. […] Vehicle only controls (PBS, pH 7.4) were also included for each receptor cell line. Receptor binding activity was analyzed using CBIS data analysis suite (ChemInnovation, CA). The percentage of activity was calculated using the following formula: % Activity=100%×(mean RLU of test sample−mean RLU of vehicle control)/(mean MAX control ligand−mean RLU of vehicle control). Dose curves were performed and EC50 values determined.

For a further assay, the target named is T2, EP4 receptor (PTGER4) (Homo sapiens, UniProt P35408).
T2 construct: expressed in transfected cells; host or cells: PathHunter β-Arrestin PTGER4 (EP4) cell line
T2 sequence (P35408 whole entry): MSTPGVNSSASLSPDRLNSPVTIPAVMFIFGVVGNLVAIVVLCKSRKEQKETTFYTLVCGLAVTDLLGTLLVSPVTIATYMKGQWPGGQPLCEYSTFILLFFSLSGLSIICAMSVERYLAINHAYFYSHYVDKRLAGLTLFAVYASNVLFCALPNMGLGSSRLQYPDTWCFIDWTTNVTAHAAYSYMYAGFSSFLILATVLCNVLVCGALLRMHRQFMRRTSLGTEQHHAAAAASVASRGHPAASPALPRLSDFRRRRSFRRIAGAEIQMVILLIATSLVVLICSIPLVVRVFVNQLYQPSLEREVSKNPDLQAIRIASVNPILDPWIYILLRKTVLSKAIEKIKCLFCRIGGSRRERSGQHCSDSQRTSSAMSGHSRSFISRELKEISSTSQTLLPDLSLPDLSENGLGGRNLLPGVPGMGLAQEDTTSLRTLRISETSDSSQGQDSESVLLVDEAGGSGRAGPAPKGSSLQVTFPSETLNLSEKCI
Kind of assay: PathHunter β-Arrestin PTGER4 (EP4) antagonist assay against GP1681 at EC80. Format: cell-based. Particulars: for inhibition of GP1681 activity, in words: standard 10 μM top concentration. The protocol:
This Example describes antagonist assay experiments performed with known EP4 receptor inhibitors. Agonist controls and antagonist binding studies were performed in the PathHunter® β-Arrestin PTGER4 (EP4) cell lines. The PathHunter® β-Arrestin assay monitors activation by bound ligands of a GPCR in a homogenous, non-imaging assay format using Enzyme Fragment Complementation (EFC) with β-galactosidase (β-Gal) as the functional reporter. A fresh 10 mM working stock of GP1681 was created in the vehicle (1×PBS, pH 7.4). Prior to setting up the GP1681-antagonist assays, the parameters of the GP1681 agonist assay were optimized for most efficient cellular activation and expression of the reporter molecule via GP1681 receptor (PTGER4) binding. Two different cell densities (5K vs 7.5K) and incubation temperatures (room temperature and 37 C) were evaluated in standard agonist format. […] Vehicle only controls (1×PBS, pH 7.4) were also included for each receptor cell line. Receptor binding activity was analyzed using CBIS data analysis suite (ChemInnovation Software, Inc., San Diego, CA, USA).
The percentage of activity was calculated using the following formula: % Activity=100%×(mean RLU of test sample−mean RLU of vehicle control)/(mean MAX control ligand−mean RLU of vehicle control). Dose curves were performed and EC50 values determined. In all rows, the assay was Arrestin, the assay target was PTGER4, and the result type was EC50 for all agonists, and IC50 for all antagonists. NI indicates no inhibition, N is number of replicates, K is cell density, and RT is room temperature.
All antagonist assays were carried out in duplicate with 10 individual concentrations of one of six antagonist compounds (commercially available from Cayman Chemical; Ann Arbor, MI, USA). […] For antagonist assays, data was normalized to the maximal and minimal response observed in the presence of EC80 ligand and vehicle. A three-fold dilution series of each compound was established with a parameters). […] Incubation was at 37° C. for 90-180 minutes after which cell wells were processed for signal detection. Microplates were read following signal generation with a PerkinElmer Envision™ instrument (Waltham, MA, USA) for chemiluminescent signal detection. Vehicle only controls (PBS, pH 7.4) were also included for each antagonist run. Receptor binding activity was analyzed using CBIS data analysis suite (ChemInnovation, CA, USA). […] Percentage inhibition was calculated using the following formula: % Inhibition=100%×(1−(mean RLU of test sample−mean RLU of vehicle control)/(mean RLU of EC80 control−mean RLU of vehicle control)). […] This molecule was included as a control molecule for Eurofins work.

A further assay deals with T3, TP receptor (TBAX2R) (Homo sapiens, UniProt P21731).
T3 construct: host or cells: PathHunter beta-arrestin cell line
T3 sequence (P21731 1-343): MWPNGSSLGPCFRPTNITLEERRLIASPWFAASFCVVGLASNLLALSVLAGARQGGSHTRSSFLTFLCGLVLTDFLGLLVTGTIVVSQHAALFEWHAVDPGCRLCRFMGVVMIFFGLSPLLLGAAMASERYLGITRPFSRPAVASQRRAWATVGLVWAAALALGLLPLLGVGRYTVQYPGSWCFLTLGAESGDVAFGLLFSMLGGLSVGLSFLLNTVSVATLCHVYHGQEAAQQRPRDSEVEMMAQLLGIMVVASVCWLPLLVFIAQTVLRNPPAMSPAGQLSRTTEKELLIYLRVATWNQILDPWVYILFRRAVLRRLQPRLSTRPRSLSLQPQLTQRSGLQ
The experiment in a line: PathHunter beta-arrestin cell-based prostanoid receptor assay, TP. Particulars: Run 1, GP1681 starting concentration 4 uM; β-Arrestin. On the procedure:
as §1, §2, §3

A further assay has as its target T4, DP1 receptor (PTGDR) (Homo sapiens, UniProt Q13258).
T4 construct: host or cells: cAMP Hunter (DP receptor) cell line
T4 sequence (Q13258 1-359): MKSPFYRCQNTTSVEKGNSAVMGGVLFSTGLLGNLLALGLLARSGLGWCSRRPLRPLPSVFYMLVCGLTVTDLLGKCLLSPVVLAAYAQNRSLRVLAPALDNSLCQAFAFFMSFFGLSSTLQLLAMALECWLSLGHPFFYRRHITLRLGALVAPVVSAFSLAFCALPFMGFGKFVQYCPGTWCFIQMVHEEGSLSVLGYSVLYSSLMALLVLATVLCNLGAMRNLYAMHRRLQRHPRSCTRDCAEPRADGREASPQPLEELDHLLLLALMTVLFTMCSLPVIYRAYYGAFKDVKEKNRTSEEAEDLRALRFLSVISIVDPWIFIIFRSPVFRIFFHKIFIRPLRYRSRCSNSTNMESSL
The experiment in a line: cAMP Hunter cell-based prostanoid receptor assay, DP receptor. Particulars: HitHunter cAMP cell line. The protocol: as §1, §2, §3
(§4) The four assays were repeated with a higher starting concentration.
(§5) The second experimental run of the receptor binding assay was performed with these last four cell lines including GP1681 and their respective positive and negative (vehicle, PBS pH 7.4) controls. A 10 mM GP1681 working stock was again created in 1×PBS, pH 7.4. A three-fold serial dilution scheme was again used for GP1681 samples, starting this time at a concentration of 500 μM. The remainder of the second experimental run was performed in the same manner as run 1.

A further assay addresses T5, EP1 receptor (PTGER1) (Homo sapiens, UniProt P34995).
T5 construct: host or cells: PathHunter beta-arrestin cell line
T5 sequence (P34995 1-402): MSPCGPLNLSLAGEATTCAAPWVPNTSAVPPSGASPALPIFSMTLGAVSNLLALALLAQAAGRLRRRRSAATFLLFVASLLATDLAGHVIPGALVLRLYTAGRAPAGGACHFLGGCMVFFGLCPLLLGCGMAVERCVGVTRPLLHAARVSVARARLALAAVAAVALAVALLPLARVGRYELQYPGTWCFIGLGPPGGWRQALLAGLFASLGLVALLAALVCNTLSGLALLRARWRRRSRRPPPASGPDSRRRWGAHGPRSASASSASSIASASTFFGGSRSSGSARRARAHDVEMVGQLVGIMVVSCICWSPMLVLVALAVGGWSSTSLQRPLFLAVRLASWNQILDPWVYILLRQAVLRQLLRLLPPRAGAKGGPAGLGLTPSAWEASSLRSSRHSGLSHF
Kind of assay: PathHunter beta-arrestin cell-based prostanoid receptor assay, EP1. The conditions noted are these: β-Arrestin. On the procedure: as §1, §2, §3, §4, §5

Setting [1] is: 5K 37C, challenge with GP1681 at EC80 (45 μM), read-out: RC50 (μM) / IC50, antagonist.
Where [2] appears, read: 5K 37C, GP1681 at EC80, read-out: IC50 for competitive inhibition of GP1681.
The mark [3] stands for this setting: Run 1, GP1681 starting concentration 4 uM, curve for GP1681 not fully sigmoidal.
[4] abbreviates: Run 2, GP1681 starting concentration 500 μM.

Values joined by “and” are separate entries in the source; they are usually repeats but may differ in a detail not shown here. Identical values can stand only once. Counter-ions that a name gives are not always drawn. Like-named read-outs stand apart in the source and are kept apart here. Where only a bound is given, the exact number is not on record here.

T1 sequence (P43119 whole entry): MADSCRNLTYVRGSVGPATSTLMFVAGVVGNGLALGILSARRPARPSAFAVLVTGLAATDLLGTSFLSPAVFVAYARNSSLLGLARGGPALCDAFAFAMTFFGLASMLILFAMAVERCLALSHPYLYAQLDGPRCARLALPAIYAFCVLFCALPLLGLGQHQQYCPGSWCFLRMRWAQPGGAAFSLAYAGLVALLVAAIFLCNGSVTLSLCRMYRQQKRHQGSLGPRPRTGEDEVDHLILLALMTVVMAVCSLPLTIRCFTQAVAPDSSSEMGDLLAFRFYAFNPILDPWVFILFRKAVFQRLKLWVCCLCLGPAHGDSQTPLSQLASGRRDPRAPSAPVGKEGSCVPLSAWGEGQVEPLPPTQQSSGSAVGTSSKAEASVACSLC

For orientation: EC50 means the concentration at which the effect is half-maximal. Low values mean greater potency, high ones weaker potency. On to `CC#CCC(C)C(O)C=CC1C(O)CC2Oc3c(CCCC(=O)O)cccc3C21` (racemic) [Beraprost, 2,3,3a,8b-tetrahydro-2-hydroxyl-1-(3-hydroxyl-4-methyl-1-octen-6-ynyl)-1H-cyclopenta[b]benzofuran-5-butanoic acid, sodium salt], for which it took 436 nM to reach a half-maximal effect at IP receptor (PTGIR) (EC50). The “fold lower affinity as compared to GP1681 for the IP receptor” value at IP receptor (PTGIR) (ratio of EC50 values) is reported as “about 4 fold”.

Consider `O=C(O)CC/C=C\CC[C@H]1[C@H](N2CCOCC2)C(=O)C[C@H]1OCc1ccc(-c2ccccc2)cc1` [AH 23848 (Ca salt)], for which the IC50 on EP4 receptor (PTGER4) (setting [1]) was > 10 µM. The “inhibition of GP1681 activity, in words” value against EP4 receptor (PTGER4) (GP1681 at EC80) is listed as “did not inhibit GP1681”.

For `CCCCCC(O)CCC1CCC(=O)N1CCCCCCC(=O)O` (stereo not drawn) [CAY10580], the IC50 at EP4 receptor (PTGER4) (setting [1]) was > 10 µM. Moreover, the “complementary activity in antagonist assay, in words” value on EP4 receptor (PTGER4) (only at 3 and 10 μM concentrations) is listed as “low level of complementary activity”. In addition, the “inhibition of GP1681 activity, in words” value against EP4 receptor (PTGER4) (GP1681 at EC80) is listed as “did not inhibit activity of GP1681”.

Consider `CCc1nc2c(C)nc(C)cc2n1-c1ccc(CCNC(=O)NS(=O)(=O)c2ccc(C)cc2)cc1` [CJ-023423], for which the IC50 at EP4 receptor (PTGER4) (IC50 for competitive inhibition of GP1681, 5K 37C, GP1681 at EC80) is 0.0265 µM; at EP4 receptor (PTGER4) (RC50 (μM) / IC50, antagonist, 5K 37C, challenge with GP1681 at EC80 (45 μM)), 0.0265 µM and 0.0266 µM.

In the case of `CCOc1c2c(c(OCC)c3ccccc13)C(=O)N(c1ccc(CC(=O)NS(=O)(=O)c3ccccc3)cc1)C2` [GW 627368X], the IC50 at EP4 receptor (PTGER4) (setting [2]) and at EP4 receptor (PTGER4) (setting [1]) was 0.0442 µM throughout.

With `O=C(O)CCC/C=C\C[C@@H]1[C@@H](/C=C/[C@@H](O)COc2ccc(I)cc2)[C@H]2CC[C@@H]1O2` [I-BOP, reference compound], the EC50 at TP receptor (TBAX2R) is 32 nM.

For `CCCCc1nn(-c2ccccc2C(F)(F)F)c(=O)n1Cc1ccc(-c2ccccc2S(=O)(=O)NC(=O)c2sccc2C)cc1` [L-161,982], the IC50 at EP4 receptor (PTGER4) (setting [2]) and at EP4 receptor (PTGER4) (setting [1]) was 0.0339 µM in each case.

For the compound `CCCCC[C@H](O)/C=C/[C@H]1C(=O)C[C@H](O)[C@@H]1C/C=C\CCCC(=O)O` [PDG2, PGD2, reference compound], the EC50 on DP1 receptor (PTGDR) (setting [3]) amounted to 2.2 nM; at DP1 receptor (PTGDR) (setting [4]), 1.2 nM.

For `CCCCC[C@H](O)/C=C/[C@H]1[C@H](O)CC(=O)[C@@H]1C/C=C\CCCC(=O)O` [PGE2, Prostaglandin E2, reference compound], the EC50 at EP1 receptor (PTGER1) (setting [3]) amounted to 4.9 nM; on EP1 receptor (PTGER1) (setting [4]), 6.3 nM.
